Series [1] deals with advanced solid tumours. The experiment in a line: Antitumour activity (RECIST, FDG-PET, CT). The class given is in vivo, human. To be noted: single patient, metastatic epithelioid sarcoma. The method, then: Radiological assessments were conducted at screening and within 7 days prior to cycle 1 docetaxel dose for DLs 1–3, and at screening and cycle 2 day 1 for DL 4. Subsequent assessments were every other cycle for all DLs.

Series [2] can be described thus: Pharmacokinetics in patients (HPLC/tandem MS, non-compartmental). The class given is in vivo, human. Here is the method: In DL 4, sampling was conducted on day 8 (CP-868,596, axitinib, and docetaxel) and day 9 (CP-868,596 and axitinib) of cycle 1: samples were collected at 0 h (predose) and 1, 1.75, 3, 4.5, and 6.5 h post-dose on day 8 and at 0 h (predose) on day 9 for CP-868,596 and axitinib. Docetaxel concentrations were assessed at 1 (end of infusion), 1.75, and 6.5 h post-dose on day 8. Concentrations of CP-868,596, docetaxel, and axitinib were determined using validated HPLC/tandem mass spectrometry (HPLC/TMS) methods. Analytes were detected using an Applied-Biosystem Sciex API 3000/4000 LC/TMS system (MDI SCIEX, Concord, ON, Canada) operating in positive ion Electrospray mode. Non-compartmental pharmacokinetic analysis was performed using WinNonlin, version 3.2 (Pharsight, Mountain View, CA, USA). […] Tmax, half-life (t1/2), AUC0–48, and AUC0–infinity. […] Descriptive statistics were used when analysing patient demographics, safety, and tumour response data. Paired t-test was used to assess the impact of co-administration of docetaxel on CP-868,596 pharmacokinetics.

Series [3] has as its system tumour vasculature. Kind of series: DCE-MRI tumoural analysis. The settings on record: DL 2, eight patients. It counts as in vivo, human. The method, then:
The DCE time course in the tumour was analysed on a pixel-by-pixel basis by fitting the data to the Kety equation and by integrating the area under the initial (i.e. the first 90 s) uptake curve. The contrast-agent concentration time course in plasma and tissue was inferred from the change in T1-weighted signal as a function of time. The Kety equation fitted the tissue contrast-agent time course to a two-compartment model: […] Ct are plasma and tissue concentration, respectively, K^trans is volume endothelial transfer constant between plasma and the extracellular extravascular space (EES), and Ve is fractional EES volume ([Ashton et al, 2008]).

Series [4] relates to PDGFR signalling pathway. The experiment in a line: Blood biomarkers of the PDGFR signalling pathway (SDS-PAGE, LI-COR). It counts as in vivo, human. Here is the method:
Blood samples for the evaluation of biomarkers potentially related to the PDGFR signalling pathway (serum Src homology phosphatase (SHP)2, phopho(p)-SHP2, pAKT, and pS6) were collected within 4 days of baseline and on day 14 in each cohort. Protein levels were analysed using gel electrophoresis (SDS–PAGE) and the LI-COR immunodetection system with appropriate antibodies.

Series [5] addresses PDGFR-β tyrosine kinase. Further details: method as in Lewis et al, 2009. To be noted: ref Lewis et al, 2009, cited from earlier work.
The subject of series [6] is patients with advanced cancers. Also noted: method as in Lewis et al, 2009. To be noted: ref Lewis et al, 2009, cited from earlier work.
Series [7] concerns xenograft models. Also noted: method as in Whalen et al, 2005. To be noted: ref Whalen et al, 2005; cited from earlier work.
In series [8] the test system is patients with advanced solid tumors. Further details: method as in Rugo et al, 2005. To be noted: ref Rugo et al, 2005; cited from earlier work.
Series [9] relates to PDGFR-β overexpressing mesothelioma cell lines. Also noted: method as in Wilmink and Richel, 2008. To be noted: in vitro; ref Wilmink and Richel, 2008; cited from earlier work.

Results on 3 compounds are retold here after paper PMC2990584, “Phase Ib study of CP-868,596, a PDGFR inhibitor, combined with docetaxel with or without axitinib, a VEGFR inhibitor” (British Journal of Cancer, 2010).

`CC1(COc2ccc3c(c2)ncn3-c2ccc3cccc(N4CCC(N)CC4)c3n2)COC1` [CP-868,596]: in series [1], the FDG-PET response result is recorded as “partial metabolic response”. The “pharmacokinetic parameters and plasma concentration profiles on co-administration” value in series [2] (co-administration of docetaxel or docetaxel plus axitinib) is listed as “unaffected”. Also, the “impact of co-administration of docetaxel on Cmax and AUC0–tau” value in series [2] (human, in vivo) is recorded as “no significant impact”. In [3], the “perfused AUC, median percentage change at day 14 relative to baseline” value was −4.4%; the “perfused K^trans, median percentage change at day 14 relative to baseline” value worked out at 12.7%; the “tumour volume, median percentage change at day 14 relative to baseline” value was found to be 14.3; the “vascularised volume, median percentage change at day 14 relative to baseline” value is recorded as 16.6. Besides, the “SHP and pSHP relative to baseline” value in series [4] (day 14, DL 1 and DL 2, n=10) is given as “unchanged”. The “levels of pS6 in peripheral blood mononuclear cells relative to baseline” value in [4] (day 14, DL 1 and DL 2, n=11, P=0.021) is listed as “significantly decreased”. The “levels of pAKT relative to baseline” value in [4] (day 14, DL 1 and DL 2, n=12) is listed as “non-significant increase”. Further, the IC50 in [5] (PDGFR-β tyrosine kinase) is 0.4 ng ml^–1. Moreover, in [5], the “selectivity for PDGFR vs other related kinases” value is on record as 50–100 fold. For the same compound, the most common toxicities entry in series [6] is “nausea, vomiting, diarrhoea, and transaminitis”. Further, the recommended dosage in [6] (single agent, with food) is reported as 100 mg twice daily (BID). Moreover, the “Dose-limiting toxicities (DLTs) identified” value in [6] (single agent) is “haematuria, transaminitis, insomnia, and nausea/vomiting”. In [7], the “cytotoxicity of docetaxel and gemcitabine on combination” value is “increased”.
Take `CNC(=O)c1ccccc1Sc1ccc2c(/C=C/c3ccccn3)n[nH]c2c1` [axitinib]: the main toxicities result in series [8] was “fatigue, nausea, diarrhoea, and hypertension”.
With `Cc1ccc(NC(=O)c2ccc(CN3CCN(C)CC3)cc2)cc1Nc1nccc(-c2cccnc2)n1` [imatinib], in series [9], the effect on cells result is “induced cytotoxicity and apoptosis”.
